# Results reported in patent US6150335A, “Tic-containing opioid dipeptide derivatives useful as analgesics” (Astra AB, priority 1996, dated 2000).
# How the values were obtained:
# mouse vas deferens (MVD) = assay: Mouse vas deferens (MVD) bioassay: inhibition of electrically evoked contractions; type: cell-based; settings: for IC50 / MVD IC50: inhibition of electrically evoked contractions, normalized with [Leu5]enkephalin standard, effect mostly δ-mediated; for GPI/MVD IC50 ratio: ratio of GPI IC50 to MVD IC50; for δ opioid agonist character (full / partial): conclusion from MVD and GPI assays
# Experimental: (§1) Bioassays based on inhibition of electrically evoked contractions of the mouse vas deferens (MVD) and of the guinea pig ileum (GPI) were performed. In the GPI assay the opioid effect is primarily mediated by μ opioid receptors, whereas in the MVD assay the inhibition of the contractions is mostly due to interaction with δ opioid receptors.
# (§2) The GPI and MVD bioassays were carried out as reported in P. W. Schiller et al., Biochem. Biophys. Res. Commun. 85, 1332-1338 (1978) and J. DiMaio et al., J. Med. Chem. 25, 1432-1438 (1982). A log-dose response curve was determined with [Leu^5 ]enkephalin as standard for each ileum and vas preparation, and IC50 values of the compounds being tested were normalized according to A. A. Waterfield et al., Eur. J. Pharmacol. 58, 11-18 (1979).
# μ opioid receptor = molecular target: T1, μ opioid receptor (Rattus norvegicus, UniProt P33535); assay: μ opioid receptor binding assay, displacement of [3H]DAMGO from rat brain membranes; settings: [3H]DAMGO 0.7 nM, Cheng-Prusoff
# T1 construct: Male Sprague-Dawley rats (300-350 g) from the Canadian Breeding Laboratories were decapitated and after removal of the cerebellum the brains were homogenized; from tissue; host or cells: rat brain (without cerebellum) membranes, male Sprague-Dawley
# Experimental: (§3) μ and δ opioid receptor binding constants (Ki^μ,Ki^δ) of the compounds were determrined by displacement of relatively selective μ and δ radioligands from binding sites in rat brain membrane preparations calculated from the measured IC50 values on the basis of the equation by Cheng and Prusoff, (Y. C. Cheng and W. H. Prusoff Biochem. Pharmnacol. 22, 3099-3102 (1973)).
# (§4) The μ-, δ- and κ-opioid receptor affinities of all new analogs were determined in binding assays based on displacement of μ-, δ- and κ-selective radioligands from rat brain membrane binding sites. In the case of κ-ligands guinea pig brain homogenates were used, since the relative proportion of κ-binding sites is higher in guinea pig brain than in rat brain. The experimental procedure being used in our laboratory represents a modified version of the binding assay described by Pasternak et al. (Mol. Pharnacol. 11, 340-351 (1975)). Male Sprague-Dawley rats (300-350 g) from the Canadian Breeding Laboratories were decapitated and after removal of the cerebellum the brains were homogenized in 30 volumes of ice-cold standard buffer (50 mnM Tris HCl , pH 7.7). After centrifugation at 30,000×g for 30 min at 4° C. the membranes were reconstituted in the original volume of standard buffer and incubated for 30 min at 37° C. (to release bound endogenous ligands). Subsequent centrifugation and resuspension of the pellet in the initial volume of fresh standard buffer yielded the final membrane suspension. Aliquots (2 ml) of the membrane preparations were incubated for 1-2 h at 25° C. with 1 ml standard buffer containing the peptide to be tested and one of the following radioligands at the final concentration indicated: [^3 H]DAMGO, μ-selective, 0.7 nM; [^3 H]DSLET, μ-selective, 1.0 nM; and [^3 H]U69,563, κ-selective, 0.5 nM. The incubation was terminated by filtration through Whatman GF/B filters under vacuum at 4° C. Following two washings with 5 ml portions of ice-cold standard buffer the filters were transferred to scintillation vials and treated with 1 ml Protosol (New England Nuclear) for 30 min prior to addition of 0.5 ml acetic acid and 10 ml Aquasol (New England Nuclear). After shaking for 30 min the vials were counted at an efficiency of 40-45%. All experiments were performed in duplicate and repeated at least three times. Specific binding of each of the three radioligands was defined by performing incubations in the presence of cold DAMGO, DSLET and U69,563, respectively, at a concentration of 1 micromolar. Values of half-maximal inhibition (IC50) of specific binding were obtained graphically from semilogarithmic plots. From the measured IC50-values, binding inhibition constants (Ki) were calculated based on Cheng and Prusoff's equation (Biochem. Pharmacol. 22, 3099-3102 (1973)). Ratios of the Ki -values determined in the μ-, δ- and κ-representative binding assays are a measure of the receptor selectivity of the compound under investigation (e.g. Ki^μ /Ki^μ indicates the selectivity for δ-receptors versus μ-receptors).
# δ opioid receptor = molecular target: T2, δ opioid receptor (Rattus norvegicus, UniProt P33533); assay: δ opioid receptor binding assay, displacement of [3H]DSLET from rat brain membranes; settings: for Ki: rat brain membranes, [3H]DSLET 1.0 nM, Cheng-Prusoff; for Ki^μ/Ki^δ: δ versus μ receptor selectivity
# T2 construct: Male Sprague-Dawley rats (300-350 g) from the Canadian Breeding Laboratories were decapitated and after removal of the cerebellum the brains were homogenized; from tissue; host or cells: rat brain (without cerebellum) membranes, male Sprague-Dawley
# Experimental: as §3
# as §4, with “[…];” for “[^3 H]DSLET, μ-selective, 1.0 nM;”
# guinea pig ileum (GPI) = assay: Guinea pig ileum (GPI) bioassay: inhibition of electrically evoked contractions; type: cell-based; settings: normalized with [Leu5]enkephalin standard, effect primarily μ-mediated
# Experimental: as §1, §2
# T2 sequence (P33533 whole entry): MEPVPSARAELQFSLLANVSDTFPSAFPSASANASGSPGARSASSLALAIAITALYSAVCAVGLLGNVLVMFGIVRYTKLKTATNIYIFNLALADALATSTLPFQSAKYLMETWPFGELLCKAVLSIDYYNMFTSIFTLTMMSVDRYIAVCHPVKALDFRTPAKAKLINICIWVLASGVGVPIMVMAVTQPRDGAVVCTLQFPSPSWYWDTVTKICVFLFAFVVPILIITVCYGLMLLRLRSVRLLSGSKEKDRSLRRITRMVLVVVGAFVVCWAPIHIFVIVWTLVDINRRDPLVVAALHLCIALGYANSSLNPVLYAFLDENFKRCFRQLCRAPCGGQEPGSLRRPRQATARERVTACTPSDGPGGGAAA
# T1 sequence (P33535 whole entry): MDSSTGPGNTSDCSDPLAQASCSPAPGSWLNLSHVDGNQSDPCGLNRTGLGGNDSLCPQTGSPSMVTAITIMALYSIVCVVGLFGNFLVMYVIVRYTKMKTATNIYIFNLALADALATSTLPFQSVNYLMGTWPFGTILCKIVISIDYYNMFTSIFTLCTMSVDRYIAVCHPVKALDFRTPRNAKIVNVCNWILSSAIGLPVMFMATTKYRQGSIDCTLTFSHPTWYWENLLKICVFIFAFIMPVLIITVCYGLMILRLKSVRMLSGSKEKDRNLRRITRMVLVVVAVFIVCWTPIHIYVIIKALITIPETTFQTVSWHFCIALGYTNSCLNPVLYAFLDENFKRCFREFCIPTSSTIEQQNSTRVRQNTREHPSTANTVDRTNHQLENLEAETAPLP
Compound,IC50 (mouse vas deferens (MVD)),GPI/MVD IC50 ratio (mouse vas deferens (MVD)),Ki (μ opioid receptor),Ki (δ opioid receptor),Ki^μ/Ki^δ (δ opioid receptor),IC50 (guinea pig ileum (GPI)),GPI IC50 (guinea pig ileum (GPI)),δ opioid agonist character (full / partial) (mouse vas deferens (MVD)),MVD IC50 (mouse vas deferens (MVD))
"CCOC(=O)C(CNC(=O)[C@@H]1Cc2ccccc2CN1C(=O)[C@@H](N)Cc1ccc(O)cc1)c1ccccc1 (single isomer, unassigned) [Example 15]",1.28 ± 0.18 nM,>7810,886 ± 172 nM,0.569 ± 0.08 nM,1560,> 10000 nM,,,
N[C@@H](Cc1ccc(O)cc1)C(=O)N1Cc2ccccc2C[C@H]1C(=O)NCC(c1ccc(Cl)cc1)c1ccc(Cl)cc1 [Example 26],397 ± 33 nM,> 25.2,1560 ± 60 nM,2.82 ± 0.07 nM,553,> 10000 nM,,,
Cc1ccccc1CCNC(=O)[C@@H]1Cc2ccccc2CN1C(=O)[C@@H](N)Cc1ccc(O)cc1 [Example 6],10.1 ± 1.2 nM,75.1,38.7 ± 8.9 nM,1.75 ± 0.1 nM,22.1,759 ± 152 nM,,,
"CCOC(=O)C(CNC(=O)[C@@H]1Cc2ccccc2CN1C(=O)[C@@H](N)Cc1ccc(O)cc1C)c1ccccc1 (single isomer, unassigned) [Example 31]",2.24 ± 0.33 nM,388,79.7 ± 2.3 nM,1.22 ± 0.04 nM,65.3,869 ± 209 nM,,,
"CCOC(=O)C(CNC(=O)[C@@H]1Cc2ccccc2CN1C(=O)[C@@H](N)Cc1ccc(O)cc1C)c1ccccc1 (single isomer, unassigned) [Example 30]",1.62 ± 0.12 nM,510,164 ± 11 nM,1.63 ± 0.27 nM,101,826 ± 183 nM,,,
N[C@@H](Cc1ccc(O)cc1)C(=O)N1Cc2ccccc2C[C@H]1C(=O)NCC(C1CCCCC1)C1CCCCC1 [Example 23],21.5 ± 6.8 nM,73.5,52.4 ± 2.5 nM,11.3 ± 3.3 nM,4.64,1580 ± 610 nM,,,
"NC(Cc1ccc(O)cc1)C(=O)N1Cc2ccccc2CC1C(=O)NC1CC1c1ccccc1 (single isomer, unassigned) [Example 22]",7.31 ± 2.3 nM,70.9,11.5 ± 1.1 nM,1.36 ± 0.15 nM,8.46,518 ± 147 nM,,,
Nc1ccc(C(CNC(=O)[C@@H]2Cc3ccccc3CN2C(=O)[C@@H](N)Cc2ccc(O)cc2)c2ccc(N)cc2)cc1 [Example 25],7.81 ± 0.48 nM,> 1280,5340 ± 700 nM,2.67 ± 0.83 nM,2000,> 10000 nM,,,
"N[C@@H](Cc1ccc(O)cc1)C(=O)N1Cc2ccccc2C[C@H]1C(=O)N[C@@H]1CCc2ccccc2C1 [Example 20, H-Tyr-Tic-2-R-At (At = aminotetralin)]",36.3 ± 3.58 nM,,26.3 ± 2.3 nM,1.72 ± 0.17 nM,15.3,,partial,,
"NC(Cc1ccc(O)cc1)C(=O)N1Cc2ccccc2CC1C(=O)NC1CC1c1ccccc1 (single isomer, unassigned) [Example 21]",,,38 ± 11.2 nM,4.13 ± 0.27 nM,9.20,1600 ± 500 nM,,partial δ agonists,partial agonist
"NC(=O)C(CNC(=O)[C@@H]1Cc2ccccc2CN1C(=O)[C@@H](N)Cc1ccc(O)cc1)c1ccccc1 (single isomer, unassigned) [Example 18]",,,191 ± 19 nM,22.8 ± 2.5 nM,8.38,> 10000 nM,,partial δ agonists,partial agonist
"N[C@@H](Cc1ccc(O)cc1)C(=O)N1Cc2ccccc2C[C@H]1C(=O)NCC(CO)c1ccccc1 (single isomer, unassigned) [Example 27]",13.6 ± 2.2 nM,38.7,70.3 ± 2.3 nM,1.26 ± 0.11 nM,55.8,526 ± 51 nM,,,
N[C@@H](Cc1ccc(O)cc1)C(=O)N1Cc2ccccc2C[C@H]1C(=O)NCCc1ccccc1Br [Example 5],13.9 ± 1.9 nM,44.1,23.3 ± 7.7 nM,1.24 ± 0.27 nM,18.8,613 ± 26 nM,,,
"NC(Cc1ccc(O)cc1)C(=O)N1Cc2ccccc2CC1C(=O)NCC(c1ccccc1)c1ccccc1 (stereo not drawn) [Example 1, H-Tyr-Tic-NH--CH2 --CH--(Ph)2]",3.77 ± 1.05 nM,963,28.8 ± 4.2 nM,0.981 ± 0.038 nM,29.4,3630 ± 470 nM,,,
"N[C@@H](Cc1ccc(O)cc1)C(=O)N1Cc2ccccc2C[C@H]1C(=O)N[C@H]1CCc2ccccc2C1 [Example 19, H-Tyr-Tic-2-S-At (At = aminotetralin)]",38.1 nM,44.9,55.8 ± 6.3 nM,4.55 nM,12.3,1710 ± 230 nM,,,
N[C@@H](Cc1ccc(O)cc1)C(=O)N1Cc2ccccc2C[C@H]1C(=O)NCCc1ccccc1[N+](=O)[O-] [Example 29],29.1 ± 10.6 nM,63.6,355 ± 13 nM,7.7 ± 0.45 nM,46.1,1850 ± 540 nM,,,
"N[C@@H](Cc1ccc(O)cc1)C(=O)N1Cc2ccccc2C[C@H]1C(=O)NCC(CO)c1ccccc1 (single isomer, unassigned) [Example 28]",92.6 ± 6 nM,> 108,242 ± 20 nM,7.8 ± 2.8 nM,31.0,> 10000 nM,,,
